Laboratory results as given in patent publication US20240344014A1, “3D SHELL MICR[…] FOR EL[…] ORGANOIDS” (The Johns Hopkins University, priority 2023, published 2024).

Test system: brain organoids
Test: 3D shell MEA recording of brain organoid electrical activity with glutamate stimulation
Assay type: cell-based, human
Conditions: brain organoid in 3D shell MEA
Source text: A 9-week brain organoid was placed at the center of the shell electrodes during self-folding, which allowed the organoid to be enveloped within the leaflets with the PEDOT: PSS electrodes in intimate contact with the organoid (FIG. 10B). A glass cylinder was placed around the device to hold the cell media. Electrode outputs were fabricated for signal acquisition (FIG. 10A). The three PEDOT: PSS electrodes on the leaflets successfully recorded the field potential of the enveloped brain organoid (FIG. 10C, FIG. 11). […] The overlaid spike waveform indicates an average spike duration of ˜2 ms, with varied amplitude during the recording (FIG. 10E). We note that we can add more electrodes to the leaflets to improve the recording (FIGS. 12A-12F, FIGS. 13A-13D).
We further confirm that the signal recorded is from the brain organoids by examining the response to 20 μM glutamate neurotransmitter added to the culture media that served as a positive control for the spontaneous recording (23, 37). […]
After preprocessing the raw signals, we detected spikes separate for each channel using a threshold-based method, where the threshold is automatically set to be 5σn. […] After spike locations were detected, we isolated them by windows of length 3.5 ms. […]

N[C@@H](CCC(=O)O)C(=O)O [glutamate]
spike signal-to-noise ratio (SNR), increase of median (amplitude of firing spikes) (20 μM glutamate added to the culture media, before vs after application): 57.6%
inter-spike-interval (ISI) of glutamate-induced signals (20 μM glutamate, before vs after stimulation): longer
